Assay results: patent US11007191B2, “Pharmaceutical compositions and dosage forms” (IGNYTA, INC., priority 2017, dated 2021)
Values after ≈ are worked out from the molar mass of the structure shown.

Tests used:
[1] = single-dose food effect study in dogs; format: in vivo, dog; conditions: formulation that did not comprise at least one polymer
Description: Such food effects can cause difficulty during human testing of drugs as the fed or fasted condition of the patient can cause exposure or bioavailability of drugs to vary widely.

[2] = solubility in solvents for fluid bed coating; format: physicochemical
Protocol: The solutions included 80/20 acetone/water, 95/5 acetone/water, 90/10 acetone/water, methyl ethyl ketone, acetone and methanol at 40° C. […] The lab temperature was monitored and ranged from 17° C. to 25° C., fluctuating with time of day during testing.

[3] = amorphous solubility in pH 6.5 PBS containing 0.5% SIF; format: physicochemical; conditions: phosphate buffered saline with 0.5% SIF powder, fassif; pH 6.5 PBS containing 0.5% SIF powder; read-out: approximate amorphous solubility
[4] = target: TrkB (Homo sapiens, UniProt Q16620); conditions: background statement; cited from earlier work
[5] = target: TrkC (Homo sapiens, UniProt Q16288); conditions: background statement; cited from earlier work
[6] = target: anaplastic lymphoma kinase (ALK) (Homo sapiens, UniProt Q9UM73); conditions: background statement; cited from earlier work
[7] = system: various forms of cancer having at least one molecular alteration in one or more of ALK, ROS1, TrkA, TrkB and TrkC; conditions: early clinical studies, patients with alteration in ALK; cited from earlier work
[8] = non-sink dissolution in pH 6.5 PBS with 0.5% SIF, USP Apparatus II; format: physicochemical; conditions: Example 5; 1 mg/mL in PBS pH 6.5 with 0.5% SIF, 37° C., 250 rpm
Protocol: The performance of all four coating weights was evaluated by dissolution in pH 6.5 phosphate buffered saline (PBS) containing 0.5% SIF powder.

[9] = gastric-to-intestinal (GB/IB) two-stage dissolution test; format: physicochemical; conditions: Example 5, GB stage, 75 mL 0.01M HCl, 100 mg nominal dose
Protocol: A two-stage dissolution test was also conducted on all four coating weights to determine if gastric exposure affected performance.
Gastric-to-intestinal (GB-IB) non-sink dissolution test: The formulation having a 50% theoretical coating weight was tested in a GB-IB non-sink dissolution test as described in the table below:

TrkB, sequence (Q16620 32-822): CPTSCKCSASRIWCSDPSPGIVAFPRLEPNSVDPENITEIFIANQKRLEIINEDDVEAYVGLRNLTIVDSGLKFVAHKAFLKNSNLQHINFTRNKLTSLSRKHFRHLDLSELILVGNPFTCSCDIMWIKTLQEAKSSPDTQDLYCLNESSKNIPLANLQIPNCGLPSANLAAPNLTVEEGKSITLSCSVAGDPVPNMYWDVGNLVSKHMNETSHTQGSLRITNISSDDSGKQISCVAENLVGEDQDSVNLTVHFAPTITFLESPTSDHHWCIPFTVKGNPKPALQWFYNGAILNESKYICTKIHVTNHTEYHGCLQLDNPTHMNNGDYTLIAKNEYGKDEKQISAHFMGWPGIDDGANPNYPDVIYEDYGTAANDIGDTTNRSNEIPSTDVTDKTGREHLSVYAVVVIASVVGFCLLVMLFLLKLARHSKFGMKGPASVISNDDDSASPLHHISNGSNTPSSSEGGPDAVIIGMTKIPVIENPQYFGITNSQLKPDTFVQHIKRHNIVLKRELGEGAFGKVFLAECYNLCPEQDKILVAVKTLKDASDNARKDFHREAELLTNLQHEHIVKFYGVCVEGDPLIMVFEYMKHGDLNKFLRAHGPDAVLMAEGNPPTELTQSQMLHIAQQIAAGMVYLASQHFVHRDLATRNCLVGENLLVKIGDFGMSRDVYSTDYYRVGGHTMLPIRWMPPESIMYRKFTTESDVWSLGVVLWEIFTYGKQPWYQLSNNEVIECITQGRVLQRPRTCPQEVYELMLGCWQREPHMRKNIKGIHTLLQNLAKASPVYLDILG
TrkC, sequence (Q16288 32-839): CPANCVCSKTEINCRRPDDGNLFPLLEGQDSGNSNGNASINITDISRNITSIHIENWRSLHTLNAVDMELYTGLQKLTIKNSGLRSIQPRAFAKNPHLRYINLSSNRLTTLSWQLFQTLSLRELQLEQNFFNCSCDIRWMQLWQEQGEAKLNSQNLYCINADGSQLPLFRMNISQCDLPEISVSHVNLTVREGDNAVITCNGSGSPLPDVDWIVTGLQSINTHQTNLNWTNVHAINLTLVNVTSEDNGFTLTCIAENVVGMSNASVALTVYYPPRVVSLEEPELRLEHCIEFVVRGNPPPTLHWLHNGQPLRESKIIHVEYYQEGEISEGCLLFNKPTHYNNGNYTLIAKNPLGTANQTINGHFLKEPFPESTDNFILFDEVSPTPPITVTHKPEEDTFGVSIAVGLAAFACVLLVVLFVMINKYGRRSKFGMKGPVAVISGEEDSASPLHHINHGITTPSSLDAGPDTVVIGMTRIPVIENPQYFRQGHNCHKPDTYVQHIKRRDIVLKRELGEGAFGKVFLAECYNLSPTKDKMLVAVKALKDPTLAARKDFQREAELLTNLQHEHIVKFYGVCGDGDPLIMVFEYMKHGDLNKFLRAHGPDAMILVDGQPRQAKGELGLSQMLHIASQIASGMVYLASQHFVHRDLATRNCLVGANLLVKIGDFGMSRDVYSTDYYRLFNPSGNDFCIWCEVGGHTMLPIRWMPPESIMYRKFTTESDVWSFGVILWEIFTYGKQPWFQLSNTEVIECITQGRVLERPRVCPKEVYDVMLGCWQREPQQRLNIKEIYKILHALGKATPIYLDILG
anaplastic lymphoma kinase (ALK), sequence (Q9UM73 19-1620): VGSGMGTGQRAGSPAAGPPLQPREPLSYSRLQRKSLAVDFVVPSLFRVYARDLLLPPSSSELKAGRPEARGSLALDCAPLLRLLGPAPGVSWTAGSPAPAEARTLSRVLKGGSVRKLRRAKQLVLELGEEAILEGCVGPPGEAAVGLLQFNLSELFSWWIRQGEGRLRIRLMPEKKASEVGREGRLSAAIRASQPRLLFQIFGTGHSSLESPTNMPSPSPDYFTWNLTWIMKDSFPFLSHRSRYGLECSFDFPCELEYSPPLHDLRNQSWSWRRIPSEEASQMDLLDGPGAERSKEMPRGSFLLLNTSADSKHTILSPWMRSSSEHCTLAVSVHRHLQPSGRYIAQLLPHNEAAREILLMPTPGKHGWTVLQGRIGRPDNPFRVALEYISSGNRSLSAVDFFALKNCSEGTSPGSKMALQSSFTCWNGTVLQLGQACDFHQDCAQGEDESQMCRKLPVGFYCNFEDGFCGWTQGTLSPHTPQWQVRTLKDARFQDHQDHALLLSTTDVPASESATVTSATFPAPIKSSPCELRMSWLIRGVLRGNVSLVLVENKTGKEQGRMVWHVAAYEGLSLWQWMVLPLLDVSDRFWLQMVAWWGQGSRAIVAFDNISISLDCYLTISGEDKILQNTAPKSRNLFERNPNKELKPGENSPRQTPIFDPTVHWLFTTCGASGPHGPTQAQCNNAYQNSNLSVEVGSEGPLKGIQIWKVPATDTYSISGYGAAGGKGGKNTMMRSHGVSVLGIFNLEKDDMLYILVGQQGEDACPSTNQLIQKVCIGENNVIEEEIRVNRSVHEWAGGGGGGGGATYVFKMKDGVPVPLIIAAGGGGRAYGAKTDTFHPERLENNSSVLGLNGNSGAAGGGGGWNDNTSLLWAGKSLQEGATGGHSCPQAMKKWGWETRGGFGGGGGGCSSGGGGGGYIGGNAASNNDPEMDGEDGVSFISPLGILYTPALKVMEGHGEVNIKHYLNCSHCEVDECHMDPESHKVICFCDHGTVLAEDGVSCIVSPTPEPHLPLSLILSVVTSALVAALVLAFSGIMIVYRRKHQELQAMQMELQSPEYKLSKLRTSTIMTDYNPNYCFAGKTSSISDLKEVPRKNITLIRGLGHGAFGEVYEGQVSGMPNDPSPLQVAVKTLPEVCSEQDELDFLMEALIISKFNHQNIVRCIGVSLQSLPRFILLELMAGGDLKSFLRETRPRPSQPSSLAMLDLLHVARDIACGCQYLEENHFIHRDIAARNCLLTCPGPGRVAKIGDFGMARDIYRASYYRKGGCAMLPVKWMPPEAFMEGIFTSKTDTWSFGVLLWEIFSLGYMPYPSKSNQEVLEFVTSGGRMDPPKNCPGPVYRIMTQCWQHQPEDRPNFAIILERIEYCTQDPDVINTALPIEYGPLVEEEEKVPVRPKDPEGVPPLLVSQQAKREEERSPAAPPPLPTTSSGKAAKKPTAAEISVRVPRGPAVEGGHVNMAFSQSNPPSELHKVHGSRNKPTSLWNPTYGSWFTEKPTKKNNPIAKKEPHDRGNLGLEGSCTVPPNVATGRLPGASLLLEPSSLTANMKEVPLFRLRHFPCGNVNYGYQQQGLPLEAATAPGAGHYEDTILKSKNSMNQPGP

Row | SMILES | exposure levels under fed conditions compared to fasting conditions [1] | solubility in acetone/water solutions ([2]; 80/20, 95/5, 90/10 acetone/water, for 24 hours, lab temperature 17-25° C.) | time until completely dissolved in acetone/water solutions ([2]; approximately 170 mg per mL of solvent) | solubility [3] | inhibition of TrkB [4] | inhibition of TrkC [5] | inhibition of ALK [6] | antitumor effects in patients [7] | dose released within about 75 minutes [8] | dose reached in the pH 2.0 media [9]
1 | CN1CCN(c2ccc(C(=O)Nc3n[nH]c4ccc(Cc5cc(F)cc(F)c5)cc34)c(NC3CCOCC3)c2)CC1 [N-[5-(3,5-difluorobenzyl)-1H-indazol-3-yl]-4-(4-methyl-piperazin-1-yl)-2-(tetrahydro-2H-pyran-4-ylamino)-benzamide] | approximately 2 fold | greater than mg/mL | ≤ 30 min | ~1000 µg/mL (≈ 1780 µM) | potent inhibitor | potent inhibitor | potent inhibitor | antitumor effects | – | –
2 | CN1CCN(c2ccc(C(=O)Nc3n[nH]c4ccc(Cc5cc(F)cc(F)c5)cc34)c(NC3CCOCC3)c2)CC1 [API, N-[5-(3,5-difluorobenzyl)-1H-indazol-3-yl]-4-(4-methyl-piperazin-1-yl)-2-(tetrahydro-2H-pyran-4-ylamino)-benzamide] | – | – | – | – | – | – | – | – | about 15% | full dose
